Data: patent publication US20030083336A1, “Phenylpiperazinyl derivatives” (H. Lundbeck A/S, priority 1999, published 2003)
pIC50: −log10 of the molar value. Structures can show the parent of a compound that is named as a salt.

Columns and labels:
[1] = biological target: T1, human cloned dopamine D3 receptors (Homo sapiens, UniProt P35462); assay: Inhibition of the binding of [3H]-Spiperone to human D3 receptors; details: [3H]Spiperone 0.3 nM; for pIC50: membranes of CHO-cells, read-out: D3-bind. IC50
T1 construct: expressed in transfected cells; host or cells: CHO cells
T1 sequence (P35462 whole entry): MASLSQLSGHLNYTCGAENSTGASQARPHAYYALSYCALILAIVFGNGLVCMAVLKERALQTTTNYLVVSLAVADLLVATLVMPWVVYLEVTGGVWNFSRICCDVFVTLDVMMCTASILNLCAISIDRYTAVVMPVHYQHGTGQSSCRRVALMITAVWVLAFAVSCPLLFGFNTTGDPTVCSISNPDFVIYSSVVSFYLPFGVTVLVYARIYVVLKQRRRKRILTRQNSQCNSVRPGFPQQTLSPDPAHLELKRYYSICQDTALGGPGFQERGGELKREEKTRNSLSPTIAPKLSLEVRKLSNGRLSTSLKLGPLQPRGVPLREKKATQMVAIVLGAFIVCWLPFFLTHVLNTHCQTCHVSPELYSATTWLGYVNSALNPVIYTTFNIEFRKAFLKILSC
Experimental: Inhibition of the Binding of [^3H]-Spiperone to Human D3 Receptors
By this method the inhibition by drugs of the binding [^3H]Spiperone (0.3 nM) to membranes of human cloned dopamine D3 receptors expressed in CHO-cells is determined in vitro. Method modified from R. G. MacKenzie et al. Eur. J. Pharm.-Mol. Pharm. Sec. 1994, 266, 79-85. The results are given in the following Table 1 as IC50-values or as percent inhibition of the binding of ^3H-Spiperone at the concentration of the test compound indicated.

[2] = biological target: T2, human cloned dopamine D4.2 receptors (Homo sapiens, UniProt P21917, DEL265-296); assay: Inhibition of the binding of 3H-YM-09151-2 to human dopamine D4 receptors; details: [3H]YM-09151-2 0.06 nM, membranes of CHO-cells; read-out: D4-bind. IC50
T2 construct: expressed in transfected cells; host or cells: CHO cells
T2 sequence (P21917 with tags, fused parts or gaps DEL265-296): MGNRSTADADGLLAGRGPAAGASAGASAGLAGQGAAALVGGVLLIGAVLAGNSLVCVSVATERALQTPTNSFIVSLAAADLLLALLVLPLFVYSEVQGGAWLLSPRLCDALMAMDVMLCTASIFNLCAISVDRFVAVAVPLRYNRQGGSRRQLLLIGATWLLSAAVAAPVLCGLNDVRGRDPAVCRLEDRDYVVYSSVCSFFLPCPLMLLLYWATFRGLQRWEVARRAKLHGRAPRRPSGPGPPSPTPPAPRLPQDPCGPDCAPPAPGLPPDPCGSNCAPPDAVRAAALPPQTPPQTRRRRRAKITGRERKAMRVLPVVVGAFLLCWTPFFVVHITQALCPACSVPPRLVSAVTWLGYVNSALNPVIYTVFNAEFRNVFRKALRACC
Experimental: Inhibition of the Binding of ^3H-YM-09151-2 to Human Dopamine D4 Receptors
By this method the inhibition by drugs of the binding of [^3H]YM-09151-2 (0.06 nM) to membranes of human cloned dopamine D4.2 receptors expressed in CHO-cells is determined in vitro. Method modified from NEN Life Science Products, Inc., technical data certificate PC2533-10/96. The results are given in the following Table 1 as IC50-values or as percent inhibition of the binding of ^3H-YM-09151 -2 at the concentration of the test compound indicated.

[3] = biological target: T3, D4 receptor (Homo sapiens, UniProt P21917); details: various in vitro efficacy assays; cited from earlier work
T3 sequence (P21917 1-419): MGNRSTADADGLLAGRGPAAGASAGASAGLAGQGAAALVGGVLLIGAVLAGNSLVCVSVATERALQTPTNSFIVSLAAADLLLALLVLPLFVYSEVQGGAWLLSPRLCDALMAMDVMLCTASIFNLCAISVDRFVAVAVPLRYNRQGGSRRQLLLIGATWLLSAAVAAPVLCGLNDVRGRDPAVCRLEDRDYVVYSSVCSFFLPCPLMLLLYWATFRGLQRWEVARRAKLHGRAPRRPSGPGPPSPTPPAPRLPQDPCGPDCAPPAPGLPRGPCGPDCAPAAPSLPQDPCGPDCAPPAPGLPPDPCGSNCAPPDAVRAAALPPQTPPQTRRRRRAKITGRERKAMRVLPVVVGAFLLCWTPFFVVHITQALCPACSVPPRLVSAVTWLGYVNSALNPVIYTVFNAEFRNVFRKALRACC

Structure (SMILES) | melting point [°C] | pIC50 [1] | pIC50 [2] | inhibition at 0.05 µM ([1]; test compound at 50 nM, read-out: D3-bind. % inhibition of binding at 50 nM) [%] | Functional activity at D4 receptor (literature) [3]
Cc1c(Oc2cccc(N(C)C)c2)cccc1N1CCN(CCCc2c[nH]c3c(F)cc(F)cc23)CC1 [Compound 2z, 1-{3-[3-(Dimethylamino)phenoxy]-2-methylphenyl}-4-[3-(5,7-difluoro-1H-indol-3-yl)propyl]piperazine] | – | – | 7.49 | 59 | –
CC(C)Oc1cccnc1N(C)C1CCN(Cc2ccccc2)CC1 [Compound U-101958] | – | – | – | – | partial D4 receptor agonists

More lines, main results first:

melting point [°C] | pIC50 [1] | pIC50 [2] | inhibition at 0.05 µM ([1]; test compound at 50 nM, read-out: D3-bind. % inhibition of binding at 50 nM) [%] | Structure (SMILES) | Functional activity at D4 receptor (literature) [3]
212 to 215 | – | – | – | Cc1c(N2CCOCC2)cccc1N1CCN(CCCc2c[nH]c3ccc(F)cc23)CC1 (as salt: HCl) [Compound 1d, 1-[2-methyl-3-(morpholin-4-yl)phenyl]-4-[3-(5-fluoro-1H-indol-3-yl)propyl]piperazine] | –
112 to 113 | – | – | – | Cc1c(N2CCOCC2)cccc1N1CCN(CCCc2c[nH]c3ccccc23)CC1 (hydrate or solvate) [Compound 1b, 1-[3-(1H-Indol-3-yl)propyl]-4-[2-methyl-3-(morpholin-4-yl)-phenyl]piperazine] | –
111 to 113 | 6.89 | 7.82 | – | Cc1c(N2CCOCC2)cccc1N1CCN(CCCCc2c[nH]c3ccccc23)CC1 [Compound 1c, 1-[2-methyl-3-(morpholin-4-yl)phenyl]-4-[4-(1H-indol-3-yl)butyl]piperazine] | –
112 to 114 | 7.20 | 7.85 | – | Cc1c(N2CCOCC2)cccc1N1CCN(CCCCc2c[nH]c3ccc(F)cc23)CC1 [Compound 1e, 1-[2-metlyl-3-(morpholin-4-yl)phenyl]-4-[4-(5-fluoro-1H-indol-3-yl)butyl]piperazine] | –
